This is an account of results in ChEMBL document CHEMBL1909046, “DrugMatrix in vitro pharmacology data”.

pIC50, pKi: −log10 of the molar value.

Sequence of Insulin receptor (P15127 27-759 limits assumed): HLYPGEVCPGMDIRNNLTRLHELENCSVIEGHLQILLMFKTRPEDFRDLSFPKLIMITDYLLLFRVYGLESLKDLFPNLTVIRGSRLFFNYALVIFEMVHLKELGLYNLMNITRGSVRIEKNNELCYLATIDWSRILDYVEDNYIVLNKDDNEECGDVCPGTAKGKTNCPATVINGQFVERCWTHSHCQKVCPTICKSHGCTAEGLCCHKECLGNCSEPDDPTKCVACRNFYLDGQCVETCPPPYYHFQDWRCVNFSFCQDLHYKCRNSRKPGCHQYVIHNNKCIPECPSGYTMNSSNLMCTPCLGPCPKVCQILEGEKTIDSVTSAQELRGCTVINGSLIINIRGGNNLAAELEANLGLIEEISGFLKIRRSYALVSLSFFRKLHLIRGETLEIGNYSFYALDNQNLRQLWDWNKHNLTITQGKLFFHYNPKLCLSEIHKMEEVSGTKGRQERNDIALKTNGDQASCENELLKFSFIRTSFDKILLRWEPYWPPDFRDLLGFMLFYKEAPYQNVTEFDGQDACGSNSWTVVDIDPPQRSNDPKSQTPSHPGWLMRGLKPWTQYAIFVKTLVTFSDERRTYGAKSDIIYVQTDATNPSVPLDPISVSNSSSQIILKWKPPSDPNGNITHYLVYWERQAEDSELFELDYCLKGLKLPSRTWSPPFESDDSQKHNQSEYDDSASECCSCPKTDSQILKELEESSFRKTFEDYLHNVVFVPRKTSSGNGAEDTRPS
Sequence of Insulin receptor (P15127 764-1383 limits assumed): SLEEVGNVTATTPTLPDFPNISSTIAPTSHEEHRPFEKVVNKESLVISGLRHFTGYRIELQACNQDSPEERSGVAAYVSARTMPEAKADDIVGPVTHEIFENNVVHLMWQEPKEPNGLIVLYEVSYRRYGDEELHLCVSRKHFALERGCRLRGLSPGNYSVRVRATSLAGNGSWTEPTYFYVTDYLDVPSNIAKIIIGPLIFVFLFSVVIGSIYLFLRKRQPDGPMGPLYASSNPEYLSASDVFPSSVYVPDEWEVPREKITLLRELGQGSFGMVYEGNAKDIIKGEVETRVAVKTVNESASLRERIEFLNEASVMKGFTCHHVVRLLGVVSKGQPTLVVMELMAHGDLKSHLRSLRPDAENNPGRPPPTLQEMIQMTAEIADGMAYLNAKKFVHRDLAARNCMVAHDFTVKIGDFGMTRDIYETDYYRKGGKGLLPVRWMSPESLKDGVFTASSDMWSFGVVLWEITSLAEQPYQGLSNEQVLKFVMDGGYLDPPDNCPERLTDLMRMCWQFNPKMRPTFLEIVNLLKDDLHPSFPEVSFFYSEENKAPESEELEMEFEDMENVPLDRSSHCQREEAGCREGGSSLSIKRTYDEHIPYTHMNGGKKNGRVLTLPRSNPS

The target in the first test is T1, Neutrophil elastase (Homo sapiens, UniProt P08246).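 Also: inhibition of neutrophil elastase enzyme activity, measured with a p-nitroanilide-linked peptide substrate; in other assays of this panel Not Active means under 50% inhibition at 10 µM.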
T1 sequence (P08246 whole entry): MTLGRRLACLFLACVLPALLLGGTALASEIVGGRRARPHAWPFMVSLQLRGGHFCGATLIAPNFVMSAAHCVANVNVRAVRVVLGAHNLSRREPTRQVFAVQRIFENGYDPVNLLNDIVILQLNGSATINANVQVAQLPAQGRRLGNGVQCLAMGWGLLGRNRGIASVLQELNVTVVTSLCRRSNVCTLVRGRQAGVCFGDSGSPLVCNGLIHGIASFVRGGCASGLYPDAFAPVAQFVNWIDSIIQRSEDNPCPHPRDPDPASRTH
The format is tissue-based.
Conditions: not given
As for `C[C@@H]1O[C@@H](O[C@@H]2C=C3CC[C@@H]4[C@H](CC[C@]5(C)[C@@H](c6ccc(=O)oc6)CC[C@]45O)[C@@]3(C)CC2)[C@H](O)[C@H](O)[C@H]1O` [PROSCILLARIDIN], the IC50 result is given as “Not Active”.

As for `Oc1cccc(O)c1O` [PYROGALLOL], the IC50 entry was “Not Active”.

Turning to AURANOFIN, the IC50 result is “Not Active” and the Ki entry is listed as “Not Active”.

As to GADOPENTETATE DIMEGLUMINE, the IC50 entry is on record as “Not Active” and the Ki result was “Not Active”.

For GENTAMICIN, the IC50 entry is on record as “Not Active” and the Ki result is on record as “Not Active”.

For GRAMICIDIN, the IC50 entry is on record as “Not Active” and the Ki entry is listed as “Not Active”.

NYSTATIN: the IC50 entry is “Not Active” and the Ki entry is “Not Active”.

System in a further test: not listed separately
The experiment in a line: DRUGMATRIX: beta-Lactamase enzyme inhibition (substrate: Nitrocefin). On the set-up: species or system Bacillus cereus. To be noted: Not Active = under 50% inhibition at 10 µM.
As for `C[C@@H]1O[C@@H](O[C@@H]2C=C3CC[C@@H]4[C@H](CC[C@]5(C)[C@@H](c6ccc(=O)oc6)CC[C@]45O)[C@@]3(C)CC2)[C@H](O)[C@H](O)[C@H]1O` [PROSCILLARIDIN], the IC50 entry is recorded as “Not Active” and the Ki entry is “Not Active”.

As to `Oc1cccc(O)c1O` [PYROGALLOL], the IC50 entry is on record as “Not Active” and the Ki entry is reported as “Not Active”.

Turning to AURANOFIN, the IC50 entry was “Not Active” and the Ki entry is given as “Not Active”.

On to GADOPENTETATE DIMEGLUMINE, for which the IC50 result is on record as “Not Active” and the Ki result was “Not Active”.

Consider GENTAMICIN, for which the IC50 result is recorded as “Not Active” and the Ki entry is listed as “Not Active”.

On to GRAMICIDIN, for which the IC50 entry is listed as “Not Active” and the Ki result is given as “Not Active”.

As to NYSTATIN, the IC50 result is “Not Active” and the Ki result is on record as “Not Active”.

The target in the next test is Adenosine receptor A2a (Homo sapiens, UniProt P29274). The experiment in a line: DRUGMATRIX: Adenosine A2A radioligand binding (ligand: […]). Format: cell membranes, HEK293, Membrane. To be noted: hek293; Not Active = under 50% inhibition at 10 µM.
Sequence of Adenosine receptor A2a (P29274 whole entry): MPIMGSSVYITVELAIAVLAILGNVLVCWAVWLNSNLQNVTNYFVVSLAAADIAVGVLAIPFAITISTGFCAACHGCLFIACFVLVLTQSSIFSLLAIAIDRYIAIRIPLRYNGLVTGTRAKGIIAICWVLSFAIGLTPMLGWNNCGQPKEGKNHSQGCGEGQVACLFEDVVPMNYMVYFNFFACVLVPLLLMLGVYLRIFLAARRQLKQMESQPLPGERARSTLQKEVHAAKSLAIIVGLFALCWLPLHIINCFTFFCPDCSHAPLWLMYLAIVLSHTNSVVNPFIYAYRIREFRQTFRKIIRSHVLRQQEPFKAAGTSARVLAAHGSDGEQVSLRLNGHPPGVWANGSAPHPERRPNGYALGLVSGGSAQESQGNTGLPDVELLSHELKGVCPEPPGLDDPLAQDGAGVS
For `C[C@@H]1O[C@@H](O[C@@H]2C=C3CC[C@@H]4[C@H](CC[C@]5(C)[C@@H](c6ccc(=O)oc6)CC[C@]45O)[C@@]3(C)CC2)[C@H](O)[C@H](O)[C@H]1O` [PROSCILLARIDIN], the IC50 entry is recorded as “Not Active”.

As to `Oc1cccc(O)c1O` [PYROGALLOL], the IC50 result was “Not Active”.

For AURANOFIN, the IC50 result is reported as “Not Active” and the Ki entry was “Not Active”.

For GADOPENTETATE DIMEGLUMINE, the IC50 result is reported as “Not Active” and the Ki result is recorded as “Not Active”.

Take GENTAMICIN: the IC50 entry is given as “Not Active” and the Ki entry is “Not Active”.

In the case of GRAMICIDIN, the IC50 entry was “Not Active” and the Ki result is recorded as “Not Active”.

For NYSTATIN, the IC50 result is on record as “Not Active” and the Ki entry is reported as “Not Active”.

The target of a further test is T2, Alpha-2A adrenergic receptor (Homo sapiens, UniProt P08913). Also: in other assays of this panel Not Active means under 50% inhibition at 10 µM.
T2 sequence (P08913 whole entry): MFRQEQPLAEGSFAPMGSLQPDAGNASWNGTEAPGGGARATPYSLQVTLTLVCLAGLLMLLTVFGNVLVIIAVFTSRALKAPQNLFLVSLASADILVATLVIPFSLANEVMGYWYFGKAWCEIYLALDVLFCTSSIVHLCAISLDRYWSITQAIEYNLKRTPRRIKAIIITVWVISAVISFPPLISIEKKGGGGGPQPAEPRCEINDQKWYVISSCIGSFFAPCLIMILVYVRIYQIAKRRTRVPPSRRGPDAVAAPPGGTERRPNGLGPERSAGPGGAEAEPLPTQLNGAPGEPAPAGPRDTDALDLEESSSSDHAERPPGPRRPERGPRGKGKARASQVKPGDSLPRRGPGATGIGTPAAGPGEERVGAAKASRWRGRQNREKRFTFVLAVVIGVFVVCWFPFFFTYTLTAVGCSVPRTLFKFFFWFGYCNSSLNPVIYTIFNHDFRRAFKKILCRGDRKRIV
Format: cell membranes, Sf9, Membrane. Particulars: sf9.
In the case of `C[C@@H]1O[C@@H](O[C@@H]2C=C3CC[C@@H]4[C@H](CC[C@]5(C)[C@@H](c6ccc(=O)oc6)CC[C@]45O)[C@@]3(C)CC2)[C@H](O)[C@H](O)[C@H]1O` [PROSCILLARIDIN], the IC50 result is on record as “Not Active”.

With `Oc1cccc(O)c1O` [PYROGALLOL], the IC50 entry is “Not Active”.

With GADOPENTETATE DIMEGLUMINE, the IC50 entry is reported as “Not Active” and the Ki result was “Not Active”.

Turning to GENTAMICIN, the IC50 entry is given as “Not Active” and the Ki result was “Not Active”.

For GRAMICIDIN, the IC50 result is “Not Active” and the Ki entry was “Not Active”.

Turning to NYSTATIN, the IC50 entry is recorded as “Not Active” and the Ki entry is “Not Active”.

The test is the same for the next values; noted with them: sf9; read-out: IC50.
Take AURANOFIN: the pIC50 (commonly the negative decadic logarithm of the IC50, by convention in mol/L) is 6.05.

The same test, now with this note: sf9; read-out: Ki.
Consider AURANOFIN, for which the pKi (commonly the negative decadic logarithm of the Ki, by convention in mol/L) is 6.48.

A further test concerns the target Insulin receptor (Rattus norvegicus, UniProt P15127). The format is cell membranes, Wistar, Liver, Membrane. Also: in other assays of this panel Not Active means under 50% inhibition at 10 µM.
Conditions: not given
Consider `C[C@@H]1O[C@@H](O[C@@H]2C=C3CC[C@@H]4[C@H](CC[C@]5(C)[C@@H](c6ccc(=O)oc6)CC[C@]45O)[C@@]3(C)CC2)[C@H](O)[C@H](O)[C@H]1O` [PROSCILLARIDIN], for which the IC50 entry was “Not Active”.

`Oc1cccc(O)c1O` [PYROGALLOL]: the IC50 result is listed as “Not Active”.

For AURANOFIN, the IC50 result was “Not Active” and the Ki entry is listed as “Not Active”.

Take GADOPENTETATE DIMEGLUMINE: the IC50 result is “Not Active” and the Ki entry is reported as “Not Active”.

For the compound GENTAMICIN, the IC50 entry is listed as “Not Active” and the Ki result is reported as “Not Active”.

For GRAMICIDIN, the IC50 result is given as “Not Active” and the Ki entry is reported as “Not Active”.

For the compound NYSTATIN, the IC50 entry is listed as “Not Active” and the Ki result is given as “Not Active”.

For the next test, the target named is Histamine H2 receptor (Homo sapiens, UniProt P25021). Format: cell membranes, CHO-K1, Membrane. Particulars: cho-k1. Also: in other assays of this panel Not Active means under 50% inhibition at 10 µM.
Sequence of Histamine H2 receptor (P25021 whole entry): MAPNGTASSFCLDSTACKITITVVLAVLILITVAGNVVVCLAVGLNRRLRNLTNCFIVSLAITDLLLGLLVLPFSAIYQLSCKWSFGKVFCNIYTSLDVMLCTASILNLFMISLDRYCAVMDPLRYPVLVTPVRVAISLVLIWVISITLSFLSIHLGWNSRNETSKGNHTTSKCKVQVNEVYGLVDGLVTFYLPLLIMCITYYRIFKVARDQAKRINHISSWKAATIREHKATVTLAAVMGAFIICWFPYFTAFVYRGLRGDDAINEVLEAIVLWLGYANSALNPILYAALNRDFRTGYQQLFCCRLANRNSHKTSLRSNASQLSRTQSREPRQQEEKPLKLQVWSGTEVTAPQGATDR
In the case of `C[C@@H]1O[C@@H](O[C@@H]2C=C3CC[C@@H]4[C@H](CC[C@]5(C)[C@@H](c6ccc(=O)oc6)CC[C@]45O)[C@@]3(C)CC2)[C@H](O)[C@H](O)[C@H]1O` [PROSCILLARIDIN], the IC50 entry is given as “Not Active”.

As to `Oc1cccc(O)c1O` [PYROGALLOL], the IC50 entry is given as “Not Active”.

For AURANOFIN, the IC50 entry is recorded as “Not Active” and the Ki entry is recorded as “Not Active”.

Consider GADOPENTETATE DIMEGLUMINE, for which the IC50 entry was “Not Active” and the Ki entry was “Not Active”.

Turning to GENTAMICIN, the IC50 entry was “Not Active” and the Ki result was “Not Active”.

Take GRAMICIDIN: the IC50 result is “Not Active” and the Ki result is listed as “Not Active”.

With NYSTATIN, the IC50 result is “Not Active” and the Ki result is “Not Active”.
